Source: patent publication US20010002252A1, “TOOTH WHITENING PREPARATIONS” (priority 1994, published 2001)

Experiment: Tooth whitening by brushing of extracted bovine teeth with toothpaste slurry, colorimeter L value
Method: Tooth whitening was measured by the following process:
Whitening was determined using a modification to a system normally employed in the dental arts for determining the abrasivity of dentifrices.
Bovine jaws were obtained at a local abattoir and the teeth were extracted in their native state; no pre-cleaning was done. Teeth were mounted in a cap with dental acrylic so as to fit the format of a colorimeter and the brushing instrument: a detailed description is given below. An initial brushing was done with a slurry of Crest Regular toothpaste and an Oral B40, medium bristle, toothbrush. Then an initial L value was determined on a colorimeter (Hunter). This was designated as the initial whiteness value. The wear tester device was manufactured by Ramè-Hart, of Mountain Lakes, N.J. This machine has often been used to test the abrasivity of dental preparations. Tooth brushes were mounted and the teeth and brushes aligned. A 1:3 slurry of paste and water was poured into the trays and brushing commenced for a total of six hours. The slurry was replaced hourly. At 3 and 6 hours L value determinations were made. This was done by first rinsing the teeth with deionized water, then placing them in a closed container at 100% humidity for 1 hours, then taking a reading on the colorimeter to obtain a 3 hour and 6 hour L value.
Toothpaste slurries were tested for their whitening effect. […]

What does the source list for `O=P(O)(O)OP(=O)(O)OP(=O)(O)O` [STP, sodium tripolyphosphate]?
tooth whitening as compared with the placebo base (10% or higher STP in Table I toothpaste base, 1:3 slurry of paste and water, brushing 6 hours, L value at 3 and 6 hours): superior tooth whitening; pH at which the best whitening results were obtained (STP toothpaste slurries, pH adjusted with 3M NaOH or 3M HCl): around 8.0
